Our source for the EC50 values is patent publication US20200347043A1, “MODULATORS OF THE INTEGRATED STRESS PATHWAY” (Calico Life Sciences LLC, priority 2019, published 2020).

The test system of this experiment is HEK293T cells carrying the ATF4 luciferase reporter. The experiment in a line: ATF4-Luc assay (in vitro model of VWMD). The following applies: Homo sapiens, HEK-293T, 1 μg/mL tunicamycin, 7 hours, One Glo luminescence. It is filed as cell-based, human. The procedure:
In order to test exemplary compounds of the invention in a cellular context, a stable VWMD cell line was first constructed. The ATF4 reporter was prepared by fusing the human full-length ATF4 5′-UTR (NCBI Accession No. BC022088.2) in front of the firefly luciferase (FLuc) coding sequence lacking the initiator methionine as described in Sidrauski et al (eLife 2013). The construct was used to produce recombinant retroviruses using standard methods and the resulting viral supernatant was used to transduce HEK293T cells, which were then subsequently selected with puromycin to generate a stable cell line.
HEK293T cells carrying the ATF4 luciferase reporter were plated on polylysine coated 384-well plates (Greiner Bio-one) at 30,000 cells per well. Cells were treated the next day with 1 μg/mL tunicamycin and 200 nM of a compound of Formula (I) for 7 hours. Luminescence was measured using One Glo (Promega) as specified by the manufacturer. Cells were maintained in DMEM with L-glutamine supplemented with 10% heat-inactivated FBS (Gibco) and Antibiotic-Antimycotic solution (Gibco).
Table 4 below summarizes the EC50 data obtained using the ATF4-Luc assay for exemplary compounds of the invention.

With `O=C(NC12CC(NC(=O)[C@@H]3C[C@@H]3COC(F)(F)F)(C1)C2)[C@H]1C[C@@H](O)c2cc(Cl)ccc2O1` (mixture of isomers) [Compound 299, (2R,4R)-6-chloro-4-hydroxy-N-[3-({(1RS,2SR)-2-[(trifluoromethoxy)methyl]cyclopropane-1-carbonyl}amino)bicyclo[1.1.1]pentan-1-yl]-3,4-dihydro-2H-1-benzopyran-2-carboxamide], the 50% effective concentration (EC50) fell in the range of 500 to 2000 nM.
Regarding `O=C1C[C@@H](C(=O)NC23CC(n4cnc(-c5ccc(F)c(F)c5)c4)(C2)C3)Oc2ccc(Cl)cc21` [Compound 175, (2S)-6-chloro-N-{3-[4-(3,4-difluorophenyl)-1H-imidazol-1-yl]bicyclo[1.1.1]pentan-1-yl}-4-oxo-3,4-dihydro-2H-1-benzopyran-2-carboxamide], the EC50 lay in the range of 50 to 250 nM.
The value for `O=C(NC12CC(c3csc(-c4ccc(Cl)cc4)n3)(C1)C2)[C@H]1C[C@@H](O)c2cc(Cl)ccc2O1` [Compound 272, (2R,4R)-6-chloro-N-{3-[2-(4-chlorophenyl)-1,3-thiazol-4-yl]bicyclo[1.1.1]pentan-1-yl}-4-hydroxy-3,4-dihydro-2H-1-benzopyran-2-carboxamide] was 10 to 50 nM.
The value for `O=C(NC12CC(c3cnn(-c4ccc(C(F)(F)F)nc4)c3)(C1)C2)[C@@H]1C[C@@H](O)c2cc(Cl)ccc2O1` [Compound 263, (2S,4R)-6-chloro-4-hydroxy-N-(3-{1-[6-(trifluoromethyl)pyridin-3-yl]-1H-pyrazol-4-yl}bicyclo[1.1.1]pentan-1-yl)-3,4-dihydro-2H-1-benzopyran-2-carboxamide] was 10 to 50 nM; that for `Cc1nc(C23CC(NC(=O)[C@H]4C[C@@H](O)c5cc(Cl)ccc5O4)(C2)C3)oc1-c1ccc(Cl)cc1` [Compound 274, (2R,4R)-6-chloro-N-{3-[5-(4-chlorophenyl)-4-methyl-1,3-oxazol-2-yl]bicyclo[1.1.1]pentan-1-yl}-4-hydroxy-3,4-dihydro-2H-1-benzopyran-2-carboxamide] was 10 to 50 nM; that for `O=C(NC12CCC(C(=O)N[C@H]3C[C@@H](OC(F)(F)F)C3)(CC1)OC2)[C@@H]1C[C@H](O)c2cc(Cl)ccc2O1` [Compound 206, (2S,4S)-6-chloro-4-hydroxy-N-(1-{[cis-3-(trifluoromethoxy)cyclobutyl]carbamoyl}-2-oxabicyclo[2.2.2]octan-4-yl)-3,4-dihydro-2H-1-benzopyran-2-carboxamide] was 500 to 2000 nM.
Consider `O=C(NC12CC(c3cc(-c4ccc(C(F)(F)F)nc4)on3)(C1)C2)[C@H]1C[C@@H](O)c2cc(Cl)ccc2O1` [Compound 260, (2R,4R)-6-chloro-4-hydroxy-N-(3-{5-[6-(trifluoromethyl)pyridin-3-yl]-1,2-oxazol-3-yl}bicyclo[1.1.1]pentan-1-yl)-3,4-dihydro-2H-1-benzopyran-2-carboxamide], for which the half-maximal effective concentration (EC50) lay in the range of 10 to 50 nM.
The result for `O=C(N[C@H]1CC[C@H](C(=O)N2CC(c3ccc(Cl)cc3)C2)CC1)[C@H]1C[C@@H](O)c2cc(Cl)ccc2O1` [Compound 174, (2R,4R)-6-chloro-N-{trans-4-[3-(4-chlorophenyl)azetidine-1-carbonyl]cyclohexyl}-4-hydroxy-3,4-dihydro-2H-1-benzopyran-2-carboxamide] reads less than 10 nM; that for `O=C(NC12CC(c3cc([C@H]4C[C@@H](OC(F)(F)F)C4)no3)(C1)C2)[C@H]1C[C@@H](O)c2cc(Cl)ccc2O1` [Compound 266, (2R,4R)-6-chloro-4-hydroxy-N-(3-{3-[cis-3-(trifluoromethoxy)cyclobutyl]-1,2-oxazol-5-yl}bicyclo[1.1.1]pentan-1-yl)-3,4-dihydro-2H-1-benzopyran-2-carboxamide], 10 to 50 nM; that for `O=C1C[C@H](C(=O)NC23CC(N4CCN(c5ccc(Cl)cc5)C4=O)(C2)C3)Oc2ccc(Cl)cc21` [Compound 179, (2R)-6-chloro-N-{3-[3-(4-chlorophenyl)-2-oxoimidazolidin-1-yl]bicyclo[1.1.1]pentan-1-yl}-4-oxo-3,4-dihydro-2H-1-benzopyran-2-carboxamide], 50 to 250 nM.
